Laboratory results from publication PMC10845951, “Characterization of a selective, iron-chelating antifungal compound that disrupts fungal metabolism and synergizes with fluconazole” (Microbiology Spectrum, 2024).

Key:
[1] = test system: Aft1/2 target genes in aft1Δ S. cerevisiae; experiment: RT-qPCR of Aft1/2 target genes in aft1Δ strain; type: cell-based, Saccharomyces cerevisiae; settings: 10 µM, 24 h
Description: WT and […] cells were grown overnight in complete supplement mixture (CSM). […] After 24 h of incubation, cells were collected, and total RNA purification, reverse transcription, and RT-qPCR were performed as previously described with minor modifications ([59], [66]). Briefly, total RNA was purified using the RNeasy Mini Kit (74104, Qiagen), and reverse transcription was performed using the QuantiTect Reverse Transcription Kit (205311, Qiagen). RT-qPCR experiments were done using the HOT FIREPol EvaGreen qPCR Mix (08-36-00001-10, Solis Biodyne) and a LightCycler 96 System (Roche). Expression of the 5S gene was used as a control. The primers used in RT-qPCR experiments are as follows: […]

[2] = test system: G. mellonella larvae infected with C. glabrata 2001HT; experiment: Survival assay in infected Galleria mellonella; type: in vivo; settings: wild-type C. glabrata (2001HT), 30 µM, vs DMSO
Description: (§1) Galleria mellonella was obtained from R.J. Mous Livebait (The Netherlands). The larvae were selected by weight (0.2–0.3 grams) and by the absence of dark spots on the cuticle. The larvae were maintained at room temperature, and the day before the experiment, they were transferred to the temperature at which the experiment was going to be performed (30°C). The number of dead caterpillars was scored every day. […] G. mellonella were infected with either C. glabrata 2001HT or FL-256; C. glabrata cells were grown in liquid media (Oxoid) overnight at 30°C with moderate shaking (150 rpm). Groups of 20 larvae per strain were infected in each experiment. The pro-leg area was cleaned with 70% ethanol using a swab. The larvae were inoculated with 10 µL of C. glabrata suspension at 2.5 × 10^6 cells/mL in PBS containing 50 µg/mL of ampicillin by injection, using a Hamilton syringe with 26-gauge needle in the last left pro-leg.

[3] = test system: G. mellonella larvae infected with C. glabrata FL-256; experiment: Survival assay in infected Galleria mellonella; type: in vivo; settings: azole-resistant C. glabrata (FL-256), 30 µM, vs DMSO
Description: as §1

HEK-293 and HS-5 cells = experiment: Incucyte live-cell imaging of treated human cells (morphology, compound precipitation)

Structure (SMILES): c1ccc(-c2cccc(-c3ccccn3)n2)nc1 [2,2′:6′,2′′-terpyridine]
- transcriptional responses after deletion of AFT1 [1]: attenuated the transcriptional responses
- survival of infected larvae [2]: significantly improved the survival
- survival of infected larvae [3]: significantly improved the survival
- cell morphology (HEK-293 and HS-5 cells; 100 µM): morphological changes
- compound precipitation / solubility (HEK-293 and HS-5 cells; cell culture medium, up to 100 µM): better solubility
